Test results from patent publication US20120130144A1, “TREATMENT OF LUNG CANCER WITH A NITROBENZAMIDE COMPOUND IN COMBINATION WITH A GROWTH FACTOR INHIBITOR” (BiPar Sciences, Inc., priority 2009, published 2012).
Entries after “also recorded” stand apart in the source; their conditions may differ. Like-named read-outs stand apart in the source and are kept apart here.

What was measured:
[1] = system: HCC827 non-small cell lung carcinoma cells; test: FACS cell cycle analysis by DNA content and BrdU incorporation, Example 1A; type: cell-based; set-up: key to Sub-G1 / G1: % of cells in cell cycle phase; details: for BrdU (−) S / G1 / G2/M / S / Sub-G1: HCC827 (NSCLC), GFT 0 nM, 72 hours
Experimental: (§1) HCC827 non-small cell lung carcinoma cells were obtained from ATCC, Rockville, Md. […] Central dose rate of approximately 1.30 Gy/minute (130 rad/minute).
(§2) After the addition of the compounds as described above, irradiation and incubation, cells were trypsinized and aliquots of the samples were taken for counting and PI (Propidium Iodide) exclusion assay. One part of the cells was centrifuged and resuspended in 0.5 ml ice-cold PBS containing 5 ug/ml of PI. The other part of the cells was fixed in ice-cold 70% ethanol and stored in a freezer overnight. For cell cycle analysis, cells were stained with propidium iodide (PI) by standard procedures. Cellular DNA content was determined by flow cytometry using BD LSRII FACS, and the percentages of cells in G1, S or G2/M were determined using ModFit software.
All cell samples were analyzed as described in [5,6] using a BD LSR II or BD Aria (BD Biosciences, San Jose, Calif.). All flow cytometry analyses were carried out using triplicate samples containing at least 30,000 cells each and the final percentages of the cell cycle distribution were normalized to singlets viable cell population, excluding cell debris and polyploid cells according established procedure.
50 μl of BrdU (Sigma Chemical Co., St. Louis, Mo.) stock solution (1 mM) was added to achieve final concentration of 10 μM BrdU. Then cells were incubated for 30 min at 37° C. and fixed in ice-cold 70% ethanol and stored at 4° C. overnight. Fixed cells were centrifuged and washed once in 2 ml PBS, then resuspended in 0.7 ml of denaturation solution (0.2 mg/ml pepsin in 2 N HCl) for 15 min at 37° C. in the dark, then 1.04 ml 1M Tris buffer (Trizma base, Sigma Chemical Co.) was added to terminate the hydrolysis. Cells were washed in 2 ml PBS and resuspended in 100-μ1(1:100 dilution) of anti-BrdU antibody (DakoCytomation, Carpinteria, Calif.) in TBFP permeable buffer (0.5% Tween-20, 1% bovine serum albumin and 1% fetal bovine serum in PBS), incubated for 25 min at room temperature in the dark and washed in 2 ml PBS. The primary antibody-labeled cells were resuspended in 100 μl ALEXA FLUOR® F(ab)2, fragment of goat anti-mouse IgG (H+L) (1:200 dilution, 2 mg/mL, Molecular Probes, Eugene, Oreg.) in TBFP buffer and incubated for 25 min at room temperature in the dark and washed in 2 ml PBS, then resuspended in 0.5 ml ice-cold PBS containing 1 μg/ml 4′,6-diamidino-2-phenylindole (DAPI) for at least 30 min [3, 6].

[2] = system: HCC827 non-small cell lung carcinoma cells; test: TUNEL apoptosis detection (FACS), Example 1A; type: cell-based; details: for TUNEL (+): HCC827 (NSCLC), GFT 0 nM, 72 hours
Description: as §1
The cells were labeled for apoptosis detection with the “In Situ Cell Death Detection Kit, Fluorescein” (Roche Diagnostics Corporation, Roche Applied Science, Indianapolis, Ind.) and analyzed based on the modified protocol from Dr. Darzynkiewicz laboratory. Briefly, fixed cells were centrifuged and washed once in phosphate-buffered saline (PBS) containing 1% bovine serum albumin (BSA), then resuspended in 2 ml permeabilization buffer (0.1% Triton X-100 and 0.1% sodium citrate in PBS) for 25 min at room temperature and washed twice in 0.2 ml PBS/1% BSA. The cells were resuspended in 50 μl TUNEL reaction mixture (TdT enzyme and labeling solution) and incubated for 60 min at 37° C. in a humidified dark atmosphere in an incubator. The labeled cells were washed once in PBS/1% BSA, then resuspended in 0.5 ml ice-cold PBS containing 1 μg/ml 4′,6-diamidino-2-phenylindole (DAPI) for at least 30 min. All cell samples were analyzed with a BD LSR II (BD Biosciences, San Jose, Calif.) and the final percentages of the cell cycle distribution were normalized to singlets viable cell population, excluding cell debris and polyploid cells according established procedure. All flow cytometry analyses were carried out using triplicate samples containing at least 30,000 cells each (typical results of 3 or more independent experiments are shown).

HCC827 cells [3] = test: Viable cell count / growth of HCC827 cells, Example 1; type: cell-based
Experimental: Lung adenocarcinoma HCC827 cells are cultured in Dulbecco Modified Eagle Medium with 10% fetal bovine serum. […] Cells are plated at a seeding density 10^5 per P100 or at 10^4 per P60 in growth media and incubated 12-18 h at 37° C., 5% CO2. BA and the EGFR inhibitor, IRESSA, are added as a single dose for 72 hours. DMSO is used as a control. Cells are irradiated with 3Gy and 5Gy gamma-irradiation using γ-Irradiator Gammacell 40 Exactor (MDS Nordion, Canada). Following treatment, cells are analyzed with BrdU ELISA assay (Roche Applied Science), FACS based cell cycle assay or TUNEL.
as §2, with “drugs,” for “the compounds as described above,”, “are” for “were trypsinized and aliquots of the samples were”, “is” for “was”, “μg/ml” for “ug/ml”, “are” for “were”, “as described hereinabove.” for “by standard procedures.”

HCC827 cells [4] = test: TUNEL apoptosis assay (FACS), Example 1; type: cell-based; details: GFT 0 nM, 72 hours
Experimental: Lung adenocarcinoma HCC827 cells are cultured in Dulbecco Modified Eagle Medium with 10% fetal bovine serum. […] Cells are plated at a seeding density 10^5 per P100 or at 10^4 per P60 in growth media and incubated 12-18 h at 37° C., 5% CO2. BA and the EGFR inhibitor, IRESSA, are added as a single dose for 72 hours. DMSO is used as a control. […] Following treatment, cells are analyzed with BrdU ELISA assay (Roche Applied Science), FACS based cell cycle assay or TUNEL.
To detect apoptosis, the cells are labeled with the “In Situ Cell Death Detection Kit, Fluorescein” (Roche Diagnostics Corporation, Roche Applied Science, Indianapolis, Ind.). Briefly, fixed cells are centrifuged and washed once in phosphate-buffered saline (PBS) containing 1% bovine serum albumin (BSA), then resuspended in 2 ml permeabilization buffer (0.1% Triton X-100 and 0.1% sodium citrate in PBS) for 25 min at room temperature and washed twice in 0.2 ml PBS/1% BSA. The cells are resuspended in 50 μl TUNEL reaction mixture (TdT enzyme and labeling solution) and incubated for 60 min at 37° C. in a humidified dark atmosphere in an incubator. The labeled cells are washed once in PBS/1% BSA, then resuspended in 0.5 ml ice-cold PBS containing 1 μg/ml 4′,6-diamidino-2-phenylindole (DAPI) for at least 30 min. All cell samples are analyzed with a BD LSR II (BD Biosciences, San Jose, Calif.). […]

[5] = in vivo; cited from earlier work
HCC827 cells [6] = test: FACS-based cell cycle analysis (PI/BrdU), Example 1; details: GFT 0 nM, 72 hours; for G1 / G2/M / S: percentage of cells
Experimental: After the addition of drugs, irradiation and incubation, cells are taken for counting and PI (Propidium Iodide) exclusion assay. One part of the cells is centrifuged and resuspended in 0.5 ml ice-cold PBS containing 5 μg/ml of PI. The other part of the cells is fixed in ice-cold 70% ethanol and stored in a freezer overnight. For cell cycle analysis, cells are stained with propidium iodide (PI) as described hereinabove. Cellular DNA content is determined by flow cytometry using BD LSRII FACS, and the percentages of cells in G1, S or G2/M are determined using ModFit software.
50 μl of BrdU (Sigma Chemical Co., St. Louis, Mo.) stock solution (1 mM) is added to achieve final concentration of 10 μM BrdU. Then cells are incubated for 30 min at 37° C. and fixed in ice-cold 70% ethanol and stored at 4° C. overnight. Fixed cells are centrifuged and washed once in 2 ml PBS, then resuspended in 0.7 ml of denaturation solution (0.2 mg/ml pepsin in 2 N HCl) for 15 min at 37° C. in the dark, then 1.04 ml 1M Tris buffer (Trizma base, Sigma Chemical Co.) is added to terminate the hydrolysis. Cells are washed in 2 ml PBS and resuspended in 100-μl (1:100 dilution) of anti-BrdU antibody (DakoCytomation, Carpinteria, Calif.) in TBFP permeable buffer (0.5% Tween-20, 1% bovine serum albumin and 1% fetal bovine serum in PBS), incubated for 25 min at room temperature in the dark and washed in 2 ml PBS. The primary antibody-labeled cells are resuspended in 100 μl ALEXA FLUOR® F(ab′)2 fragment of goat anti-mouse IgG (H+L) (1:200 dilution, 2 mg/mL, Molecular Probes, Eugene, Oreg.) in TBFP buffer and incubated for 25 min at room temperature in the dark and washed in 2 ml PBS, then resuspended in 0.5 ml ice-cold PBS containing 1 μg/ml 4′,6-diamidino-2-phenylindole (DAPI) for at least 30 min. All cell samples are analyzed with a BD LSR II (BD Biosciences, San Jose, Calif.). All flow cytometry analyses are carried out using triplicate samples containing at least 30,000 cells each (typical results of independent experiments are shown).

[7] = system: HCC827 non-small cell lung carcinoma cells; test: Number of vital (proliferating) cells relative to control, Example 1A; type: cell-based; details: for Live Cell: HCC827 (NSCLC), GFT 0 nM, 72 hours, percentage relative to control
Experimental: as §1
Following treatment, the number of vital cells was measured. Percentage of the vital (proliferating) cells under different treatments was calculated relative to the control (untreated) cells.
as §2

NSCLC tumors = details: after failure of chemotherapy, cited from earlier work
HCC827 cells [8] = test: CellTiter 96 Aqueous Cell Proliferation Assay (MTS), Example 2; type: cell-based; details: in combination with BA (100 μM and 50 μM), 72 hours
chemo-refractory NSCLC = details: phase II, monotherapy, 57 evaluable patients; cited from earlier work
NSCLC = details: cited from earlier work
[9] = system: locally advanced or metastatic pancreatic cancer; details: cited from earlier work
VEGF = details: human, in vivo; cited from earlier work
[10] = gefitinib-treated HCC827 cells, FIG. 2c
[11] = Homo sapiens, HCC827, 72 h, read-out: Viable Cell
[12] = Caucasian patients with NSCLC tumors
[13] = phase III versus placebo, NSCLC after failed prior chemotherapy
[14] = combination treatment arm (TARCEVA with gemcitabine)

Sequence of VEGF (P15692 207-311 limits assumed): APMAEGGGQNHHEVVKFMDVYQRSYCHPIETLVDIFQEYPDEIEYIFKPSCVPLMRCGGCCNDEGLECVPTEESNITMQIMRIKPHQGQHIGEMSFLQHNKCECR

## NC(=O)c1ccc(I)c([N+](=O)[O-])c1 [BA, 4-iodo-3-nitrobenzamide]
[1]; BA 50 uM
  BrdU (−) S: 1.95
  G1: 46.26
  G2/M: 8.82
  S: 40.62
  Sub-G1: 2.36
[1]; BA 100 uM
  BrdU (−) S: 8.05
  G1: 43.76
  G2/M: 12.49
  S: 19.92
  Sub-G1: 15.79
[1]; gefitinib treated HCC827 cells
  cell cycle arrest: enhanced cell cycle arrest
[1]; [10]
  number of cells in G1 and S phases of cell cycle: reduced number of cells in G1 and S phases
  number of dead cells (sub-G1): induced number of dead cells (sub-G1)
[2]; BA 50 uM
  TUNEL (+): 5.7
[2]; BA 100 uM
  TUNEL (+): 32.8
[2]; gefitinib treated HCC827 cells
  apoptosis: induced apoptosis
HCC827 cells [3]; HCC827 cell line, FIG. 1
  effect of BA on the activity of gefitinib (IRESSA): potentiates the activity of gefitinib; also recorded: potentiates the activity of the EGFR inhibitor, IRESSA
HCC827 cells [3]; [11]
  viability at 50 µM: 65%
  viability at 100 µM: 25%
HCC827 cells [4]; BA 50 uM
  TUNEL (+): 5.7
HCC827 cells [4]; BA 100 uM
  TUNEL (+): 32.8
[5]
  crossing of the blood-brain barrier: known to cross the blood-brain barrier
  distribution into tissues: distributes rapidly and widely into tissues, including the brain and cerebrospinal fluid (CSF)
HCC827 cells [6]; BA 50 uM
  Sub-G1: 2.4
  G1: 46.3
  G2/M: 8.8
  S: 40.6
HCC827 cells [6]; BA 100 uM
  Sub-G1: 15.8
  G1: 43.8
  G2/M: 12.5
  S: 19.9
[7]; BA 50 uM
  Live Cell: 65
[7]; BA 100 uM
  Live Cell: 25
[7]; HCC827 cells, FIG. 2a-2c
  effect of BA on antiproliferative effect of growth factor inhibitors: potentiates antiproliferative effect of growth factor inhibitors
[7]; non-small lung carcinoma cells
  effect of BA on antitumor activity of gefitinib: potentiates antitumor activity of gefitinib

## NC(=O)c1ccc(I)c(N=O)c1 [BNO, 4-iodo-3-nitrosobenzamide]
[1]; BNO 25 uM
  BrdU (−) S: 1.30
  G1: 61.10
  G2/M: 7.20
  S: 29.30
  Sub-G1: 1.10
[1]; BNO 50 uM
  BrdU (−) S: 3.50
  G1: 38.74
  G2/M: 11.41
  S: 44.24
  Sub-G1: 2.10
[2]; BNO 25 uM
  TUNEL (+): 2.9
[2]; BNO 50 uM
  TUNEL (+): 7.7
[7]; BNO 25 uM
  Live Cell: 76
[7]; BNO 50 uM
  Live Cell: 40

## COc1cc2ncnc(Nc3ccc(F)c(Cl)c3)c2cc1OCCCN1CCOCC1 [GFT, gefitinib]
NSCLC tumors; [12]
  major objective responses: approximately 10%
NSCLC tumors; Japanese patients with NSCLC tumors
  major objective responses: 25-30%

## COC(=O)[C@@]1(O)C[C@H]2O[C@]1(C)n1c3ccccc3c3c4c(c5c6ccccc6n2c5c31)C(=O)NC4 [K252a, (9S-(9α,10β,12α))-2,3,9,10,11,12-hexahydro-10-hydroxy-10-(methoxycarbonyl)-9-methyl-9,12-epoxy-1H-diindolo[1,2,3-fg:3′,2′,1′-kl]pyrrolo[3,4-i][1,6]benzodiazocin-1-one]
HCC827 cells [8]
  effect of BA on antiproliferative effects of growth factor receptors inhibitors: potentiation of antiproliferative effects

## COc1cc([C@@H]2c3cc4c(cc3[C@H](O)[C@H]3COC(=O)[C@@H]23)OCO4)cc(OC)c1OC [PPP, (5R,5aS,8aR,9R)-5,8,8a,9-Tetrahydro-9-hydroxy-5-(3,4,5-trimethoxyphenyl)-furo[3′,′: 6,7]naphtho[2,3-d]-1,3-dio xol-6(5aH)-one]
HCC827 cells [8]
  effect of BA on antiproliferative effects of growth factor receptors inhibitors: potentiation of antiproliferative effects

## C#Cc1cccc(Nc2ncnc3cc(OCCOC)c(OCCOC)cc23)c1 [TARCEVA, erlotinib]
NSCLC tumors; [12]
  major objective responses: approximately 10%
chemo-refractory NSCLC
  patients achieving disease stabilisation: 51%
  patients surviving for at least 12 months: 40%
NSCLC; NSCLC primary registration trial
  patients affected by rash: 75%
NSCLC; clinical trials
  tolerability: generally well tolerated
NSCLC; [13]
  improvement in median survival: 42%
  improvement in one-year survival: 45%
[9]; [14]
  Median survival: 6.4 months
  one-year survival: 25.6%
[9]; in combination with gemcitabine, compared with gemcitabine alone
  improvement in overall survival: 23.5%

## Nc1ccn([C@@H]2O[C@H](CO)[C@@H](O)C2(F)F)c(=O)n1 [gemcitabine]
[9]; gemcitabine plus placebo
  Median survival: 5.9 months
  one-year survival: 19.7%

## bevacizumab: first anti-VEGF drug, a monoclonal antibody
VEGF
  patients who benefit from therapy: 10-15%
